Laboratory results taken from patent US20100152434A1, “Protein Kinase-binding Nucleosides and Associated Methods” (priority 2007, published 2010).
Where two headings read alike, the source gives them in different places.

Experiments:
SNB-19 [1] = assay: cells; details: Homo sapiens
RXF 393 = details: RXF 393
RPMI-8226 [2] = assay: cells; details: Homo sapiens
M14 = assay: cells; details: Homo sapiens
SNB-75 = assay: cells; details: Homo sapiens
HCC-2998 = details: HCC-2998
NCI-H460 = assay: cells; details: Homo sapiens
A549/ATCC [3] = assay: cells; details: Homo sapiens
SNB-19 [4] = tested on: SNB-19
NCI/ADR-RES = assay: cells; details: Homo sapiens
SN12C = assay: cells; details: Homo sapiens
A549/ATCC [5] = tested on: A549/ATCC
SK-OV-3 = assay: cells; details: Homo sapiens
HOP-92 = assay: cells; details: Homo sapiens
NCI-H322M = details: NCI-H322M
RPMI-8226 [6] = tested on: RPMI-8226

CNC(=O)NC[C@H]1O[C@@H](n2cnc3c(NC(=O)Nc4ccccc4)ncnc32)[C@H](O[Si](C)(C)C(C)(C)C)[C@@H]1CC(=O)N(C)OC [Compound 13, 2′-O-(tert-Butyldimethylsilyl)-3′,5′-dideoxy-3′-[(N-methoxy-N-methylcarboxamido)methyl]-5′-[(N-methylcarbamoyl)amino]-N^6-(N-phenylcarbamoyl)adenosine]
GI50 (SNB-19 [1]; SNB-19): > 100 µM | CC50 (SNB-19 [1]; SNB-19, read-out: LC50): > 100 µM | TGI (CAKI-1): >1.00E−4 Molar | Percent Growth (CAKI-1; Log10 Concentration −4.0): 47% | Percent Growth (CAKI-1; Log10 Concentration −5.0): 57% | Percent Growth (CAKI-1; Log10 Concentration −6.0): 76% | Percent Growth (CAKI-1; Log10 Concentration −7.0): 72% | Percent Growth (CAKI-1; Log10 Concentration −8.0): 85% | TGI (T-47D): >1.00E−4 Molar | Percent Growth (T-47D; Log10 Concentration −4.0): 17% | Percent Growth (T-47D; Log10 Concentration −5.0): 56% | Percent Growth (T-47D; Log10 Concentration −6.0): 84% | Percent Growth (T-47D; Log10 Concentration −7.0): 89% | Percent Growth (T-47D; Log10 Concentration −8.0): 90% | TGI (RXF 393): 3.80E−5 Molar | Percent Growth (RXF 393; Log10 Concentration −4.0): −36% | Percent Growth (RXF 393; Log10 Concentration −5.0): 49% | Percent Growth (RXF 393; Log10 Concentration −6.0): 98% | Percent Growth (RXF 393; Log10 Concentration −7.0): 100% | Percent Growth (RXF 393; Log10 Concentration −8.0): 103% | GI50 (RPMI-8226 [2]; RPMI-8226): 1580 nM | CC50 (RPMI-8226 [2]; RPMI-8226, read-out: LC50): > 100 µM | TGI (HT29): >1.00E−4 Molar | Percent Growth (HT29; Log10 Concentration −4.0): 17% | Percent Growth (HT29; Log10 Concentration −5.0): 32% | Percent Growth (HT29; Log10 Concentration −6.0): 100% | Percent Growth (HT29; Log10 Concentration −7.0): 107% | Percent Growth (HT29; Log10 Concentration −8.0): 104% | TGI (MCF7): >1.00E−4 Molar | Percent Growth (MCF7; Log10 Concentration −5.0): 34% | Percent Growth (MCF7; Log10 Concentration −6.0): 96% | Percent Growth (MCF7; Log10 Concentration −7.0): 95% | Percent Growth (MCF7; Log10 Concentration −8.0): 91% | TGI (SF-539): >1.00E−4 Molar | Percent Growth (SF-539; Log10 Concentration −4.0): 23% | Percent Growth (SF-539; Log10 Concentration −5.0): 65% | Percent Growth (SF-539; Log10 Concentration −6.0): 89% | Percent Growth (SF-539; Log10 Concentration −7.0): 94% | Percent Growth (SF-539; Log10 Concentration −8.0): 96% | TGI (SF-268): >1.00E−4 Molar | Percent Growth (SF-268; Log10 Concentration −4.0): 20% | Percent Growth (SF-268; Log10 Concentration −5.0): 46% | Percent Growth (SF-268; Log10 Concentration −6.0): 91% | Percent Growth (SF-268; Log10 Concentration −7.0): 105% | Percent Growth (SF-268; Log10 Concentration −8.0): 98% | GI50 (M14; M14): 15.2 µM | CC50 (M14; M14, read-out: LC50): > 100 µM | GI50 (SNB-75; SNB-75): 12.7 µM | CC50 (SNB-75; SNB-75, read-out: LC50): > 100 µM | TGI (UACC-62): >1.00E−4 Molar | Percent Growth (UACC-62; Log10 Concentration −4.0): 39% | Percent Growth (UACC-62; Log10 Concentration −5.0): 69% | Percent Growth (UACC-62; Log10 Concentration −6.0): 96% | Percent Growth (UACC-62; Log10 Concentration −7.0): 107% | Percent Growth (UACC-62; Log10 Concentration −8.0): 102% | TGI (HCC-2998): >1.00E−4 Molar | Percent Growth (HCC-2998; Log10 Concentration −4.0): 33% | Percent Growth (HCC-2998; Log10 Concentration −5.0): 66% | Percent Growth (HCC-2998; Log10 Concentration −6.0): 100% | Percent Growth (HCC-2998; Log10 Concentration −7.0): 97% | Percent Growth (HCC-2998; Log10 Concentration −8.0): 102% | GI50 (NCI-H460; NCI-H460): 7.49 µM | CC50 (NCI-H460; NCI-H460, read-out: LC50): > 100 µM | GI50 (A549/ATCC [3]; A549): 9.35 µM | CC50 (A549/ATCC [3]; A549, read-out: LC50): > 100 µM | TGI (SNB-19 [4]): >1.00E−4 Molar | Percent Growth (SNB-19 [4]; Log10 Concentration −4.0): 51% | Percent Growth (SNB-19 [4]; Log10 Concentration −5.0): 61% | Percent Growth (SNB-19 [4]; Log10 Concentration −6.0): 83% | Percent Growth (SNB-19 [4]; Log10 Concentration −7.0): 93% | Percent Growth (SNB-19 [4]; Log10 Concentration −8.0): 94% | GI50 (NCI/ADR-RES): > 100 µM | CC50 (NCI/ADR-RES; read-out: LC50): > 100 µM | GI50 (SN12C): 85.3 µM | CC50 (SN12C; read-out: LC50): > 100 µM | TGI (A549/ATCC [5]): >1.00E−4 Molar | Percent Growth (A549/ATCC [5]; Log10 Concentration −4.0): 27% | Percent Growth (A549/ATCC [5]; Log10 Concentration −5.0): 49% | Percent Growth (A549/ATCC [5]; Log10 Concentration −6.0): 97% | Percent Growth (A549/ATCC [5]; Log10 Concentration −7.0): 100% | Percent Growth (A549/ATCC [5]; Log10 Concentration −8.0): 97% | TGI (NCI-H522): >1.00E−4 Molar | Percent Growth (NCI-H522; Log10 Concentration −4.0): 31% | Percent Growth (NCI-H522; Log10 Concentration −5.0): 51% | Percent Growth (NCI-H522; Log10 Concentration −6.0): 84% | Percent Growth (NCI-H522; Log10 Concentration −7.0): 87% | Percent Growth (NCI-H522; Log10 Concentration −8.0): 90% | TGI (MALME-3M): >1.00E−4 Molar | Percent Growth (MALME-3M; Log10 Concentration −4.0): 23% | Percent Growth (MALME-3M; Log10 Concentration −5.0): 52% | Percent Growth (MALME-3M; Log10 Concentration −6.0): 93% | Percent Growth (MALME-3M; Log10 Concentration −7.0): 88% | Percent Growth (MALME-3M; Log10 Concentration −8.0): 103% | GI50 (SK-OV-3; SK-OV-3): 52.7 µM | CC50 (SK-OV-3; SK-OV-3, read-out: LC50): > 100 µM | GI50 (HOP-92; HOP-92): 2710 nM | CC50 (HOP-92; HOP-92, read-out: LC50): > 100 µM | TGI (NCI-H322M): >1.00E−4 Molar | Percent Growth (NCI-H322M; Log10 Concentration −4.0): 73% | Percent Growth (NCI-H322M; Log10 Concentration −5.0): 90% | Percent Growth (NCI-H322M; Log10 Concentration −6.0): 102% | Percent Growth (NCI-H322M; Log10 Concentration −7.0): 98% | Percent Growth (NCI-H322M; Log10 Concentration −8.0): 97% | TGI (RPMI-8226 [6]): 5.40E−6 Molar | Percent Growth (RPMI-8226 [6]; Log10 Concentration −4.0): −16% | Percent Growth (RPMI-8226 [6]; Log10 Concentration −5.0): −25% | Percent Growth (RPMI-8226 [6]; Log10 Concentration −6.0): 69% | Percent Growth (RPMI-8226 [6]; Log10 Concentration −7.0): 91% | Percent Growth (RPMI-8226 [6]; Log10 Concentration −8.0): 80%
